Assay results from patent US10035830B2, “Method for treatment of GM1 gangliosidosis” (Korea Research Institute of Bioscience and Biotechnology, priority 2014, dated 2018).

Columns and labels:
[1] = system: GM1-NPCs originated neurosphere; assay: Recovery of GM1-NPCs/neurosphere morphology by the inhibition of inflammasome (phase-contrast microscopy); assay type: cell-based, human; conditions: GM1-NPCs cultured with 1 μg/ml rhIL1RA or 10 μM Z-YVAD-FMK, 2~4 weeks; FIG. 30a
Protocol: To investigate the recovery of neural damage caused by the increased activation of inflammasome related metabolic pathway in GM1, GM1-NPCs were treated with the inflammasome inhibitors IL1β antagonist (rhIL1RA) and caspase-1 inhibitor (Z-YVAD-FMK), and then the morphology of GM1-NPCs was investigated.
Particularly, the differentiation of GM1-NPCs was induced by the same manner as described in Example <4-1>. Then, the induced GM1-NPCs were cultured in the culture medium respectively treated with 1 μg/ml rhIL1RA (R&D Systems, USA) or 10 μM Z-YVAD-FMK (Merck Millipore, Germany) in order to inhibit inflammasome therein. 2˜4 weeks later, the cultured GM1-NPCs originated neurosphere was obtained. The morphology of neurosphere was observed by phase-contrast microscopy.

GM1-NPCs = assay: Gene expression pattern in GM1-NPCs treated with inflammasome inhibitor (microarray, qPCR); assay type: cell-based, human; conditions: for tendency of changed genes to recover to the normal gene expression pattern: GM1-NPCs treated with Z-YVAD-FMK (10 μM) or rhIL1RA (1 μg/ml), FIG. 31, 33
Protocol: Particularly, GM1-iPSCs were constructed by the same manner as described in Example 2 and the differentiation of GM1-NPCs was induced by the same manner as described in Example <4-1>. Then, RNA was extracted from GM1-fibroblasts, GM1-iPSCs, or GM1-NPCs by using RNAiso Plus (Takara, Japan) or RNeasy mini kit (Qiagen, USA) according to the manufacturer's protocol. Reverse transcription PCR (PT PCR) was performed using 1˜2 μg of the extracted RNA as a template with Superscript III (Invitrogen, USA) in order to synthesize cDNA of the cell genome. Upon completion of the RT-PCR, 10 μl of qPCR reaction mixture was prepared by mixing 0.2 μl of the reaction product above, 1 μM oligonucleotide primer, […] of FAST SYBR green master mix (Applied Biosystems, USA), and distilled water, which proceeded to qPCR using 7500 Fast Real-time PCR system (Applied Biosystems, USA). The expression of the control GAPDH gene was also confirmed by the same manner as described above to correct the expression level. Based on the expression level of GAPDH mRNA, the fold change of NESTIN, NCAM, PAX6, OTX2, or REX1 mRNA was calculated.
Particularly, GM1-iPSCs were constructed by the same manner as described in Example 2, and the differentiation of GM1-NPCs was induced therefrom by the same manner as described in Example <4-1>. Then, GM1-fibroblasts, GM1-iPSCs, and GM1-NPCs were obtained. Microarray was performed by using Low RNA input linear amplification kit, cRNA cleanup module, and Whole Human Genome Microarray 4×44K (Agilent Technology, USA) according to the manufacturer's protocol. The obtained microarray images were revised as signals corresponding to WT-fibroblasts, WT-iPSCs, and WT-NPCs.
Particularly, GM1-NPCs were differentiated according to the method described in Example <4-1>, and then treated with rhIL1RA or Z-YVAD-FMK by the same manner as described in Example <9-1>. Microarray was performed by the same manner as described in Example <7-1> in order to investigate the up- or down-regulation of the gene involved in inflammasome. […] WT-NPC was used as the normal control. As for the negative control, GM1-NPCs were treated with DMSO instead of rhIL1RA or Z-YVAD-FMK. The expression pattern (either up- or down regulation) and the mRNA expression level were investigated by the same manner as described above.

[2] = GM1-NPCs treated with Z-YVAD-FMK (10 μM), FIG. 32

Compound | morphology of GM1-neurosphere [1] | tendency of changed genes to recover to the normal gene expression pattern (GM1-NPCs) | increase of the reduced B4GALNT expression (GM1-NPCs; [2]) [fold] | reduction of GLB1 expression compared with that in GM1-NPCs (GM1-NPCs; [2]) [%] | oligo probe pairs displaying the changed expression pattern (GM1-NPCs; GM1-NPCs treated with Z-YVAD-FMK (10 μM), of total 27,375 oligo probe pairs, microarray, FIG. 31) [%] | genes displaying the changed expression pattern (GM1-NPCs; GM1-NPCs treated with rhIL1RA (1 μg/ml), FIG. 33) [%]
COC(=O)C[C@H](NC(=O)[C@H](C)NC(=O)[C@@H](NC(=O)C(Cc1ccc(O)cc1)NC(=O)OCc1ccccc1)C(C)C)C(=O)CF (stereo partly drawn) [Z-YVAD-FMK, methyl(3S)-3-[(2S)-2-[(2S)-2-(2-{[(benzyloxy)carbonyl]amino}-3-(4-hydroxyphenyl)propanamido)-3-methylbutanamido]propanamido]-5-fluoro-4-oxopentanoate] | recovering the GM1 patient-specific cell morphology | tendency to recover their gene expression patterns changed by GM1 mediated neural damage back to the normal pattern | 2.6 | 47 | 9.3 | 
rhIL1RA: interleukin 1-receptor antagonist protein, SEQ. ID. NO: 2; cat #280-RA-050 (rhIL-1ra), R&D systems | recovering the GM1 patient-specific cell morphology | tendency to recover the abnormal gene expression in GM1 cells to the normal expression pattern |  |  |  | 3.6
